Measurements: ChEMBL document CHEMBL1147909, “Methylenedisalicylic acid derivatives: new PTP1B inhibitors that confer resistance to diet-induced obesity” (Bioorg Med Chem Lett, 2007)
pIC50, pKi: −log10 of the molar value. Blank lines part the entries; values can stand above or below the molecule they belong to.

How the values were obtained:
[1] = biological target: T1, Tyrosine-protein phosphatase non-receptor type 1 (Homo sapiens, UniProt P18031); test: Inhibition of PTP1B after 10 mins
T1 sequence (P18031 whole entry): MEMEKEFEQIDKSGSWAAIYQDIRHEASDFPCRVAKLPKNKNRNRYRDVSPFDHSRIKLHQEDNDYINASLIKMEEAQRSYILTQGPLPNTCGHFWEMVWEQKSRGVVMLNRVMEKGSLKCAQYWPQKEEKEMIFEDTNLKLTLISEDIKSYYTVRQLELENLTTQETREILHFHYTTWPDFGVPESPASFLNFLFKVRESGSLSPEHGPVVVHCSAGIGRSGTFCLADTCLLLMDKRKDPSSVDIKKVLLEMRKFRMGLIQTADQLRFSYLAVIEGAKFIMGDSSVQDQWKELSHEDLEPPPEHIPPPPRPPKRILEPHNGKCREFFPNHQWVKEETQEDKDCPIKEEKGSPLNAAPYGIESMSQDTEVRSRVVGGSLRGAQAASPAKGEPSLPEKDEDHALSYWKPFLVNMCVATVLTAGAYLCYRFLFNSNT

[2] = Inhibition of LAR Tyrosine phosphatase D1; set-up: species or system Homo sapiens
[3] = biological target: Tyrosine-protein phosphatase non-receptor type 6 (Homo sapiens, UniProt P29350); test: Inhibition of SHP-1 catalytic domain
[4] = biological target: T2, Tyrosine-protein phosphatase non-receptor type 2 (Homo sapiens, UniProt P17706); test: Inhibition of TC-PTP
T2 sequence (P17706 whole entry): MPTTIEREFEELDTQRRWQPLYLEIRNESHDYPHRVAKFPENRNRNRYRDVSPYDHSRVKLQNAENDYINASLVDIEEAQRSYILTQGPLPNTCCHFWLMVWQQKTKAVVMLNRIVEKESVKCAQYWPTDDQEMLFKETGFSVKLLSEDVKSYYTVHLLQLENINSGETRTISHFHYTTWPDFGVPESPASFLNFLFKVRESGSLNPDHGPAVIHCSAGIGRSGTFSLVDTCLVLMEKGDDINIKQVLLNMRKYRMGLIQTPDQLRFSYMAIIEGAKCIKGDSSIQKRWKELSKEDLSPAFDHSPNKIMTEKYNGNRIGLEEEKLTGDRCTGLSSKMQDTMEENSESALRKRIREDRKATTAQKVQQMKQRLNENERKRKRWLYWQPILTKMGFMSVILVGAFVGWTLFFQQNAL

Homo sapiens = organism: Homo sapiens; test: Selectivity for PTP1B over TC-PTP
[5] = biological target: T3, Tyrosine-protein phosphatase 1 (Saccharomyces cerevisiae S288c, UniProt P25044); test: Inhibition of yeast PTP1
T3 sequence (P25044 whole entry): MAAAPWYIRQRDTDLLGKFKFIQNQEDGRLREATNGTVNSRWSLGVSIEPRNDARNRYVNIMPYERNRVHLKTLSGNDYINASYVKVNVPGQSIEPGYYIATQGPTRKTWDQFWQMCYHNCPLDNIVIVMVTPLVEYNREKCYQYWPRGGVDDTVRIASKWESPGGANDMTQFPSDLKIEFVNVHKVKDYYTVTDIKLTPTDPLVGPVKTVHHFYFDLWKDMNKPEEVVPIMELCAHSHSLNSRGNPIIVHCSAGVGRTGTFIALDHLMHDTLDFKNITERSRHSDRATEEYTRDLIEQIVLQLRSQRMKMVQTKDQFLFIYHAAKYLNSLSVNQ

Mus musculus [6] = test: Effect on high fat diet induced obesity in C57BL/6J Jms Slc mouse assessed as body weight at 5 g/kg; type: functional
Mus musculus [7] = test: Effect on high fat diet induced obesity in C57BL/6J Jms Slc mouse assessed as liver weight at 5 g/kg; type: functional
Mus musculus [8] = test: Effect on high fat diet induced obesity in C57BL/6J Jms Slc mouse assessed as retroperitoneal adipose tissue weight at 5 g/kg; type: functional
Mus musculus [9] = test: Effect on high fat diet induced obesity in C57BL/6J Jms Slc mouse assessed as epididymal adipose tissue weight at 5 g/kg; type: functional

Sequence of Tyrosine-protein phosphatase non-receptor type 6 (P29350 whole entry, the tested form may be a part): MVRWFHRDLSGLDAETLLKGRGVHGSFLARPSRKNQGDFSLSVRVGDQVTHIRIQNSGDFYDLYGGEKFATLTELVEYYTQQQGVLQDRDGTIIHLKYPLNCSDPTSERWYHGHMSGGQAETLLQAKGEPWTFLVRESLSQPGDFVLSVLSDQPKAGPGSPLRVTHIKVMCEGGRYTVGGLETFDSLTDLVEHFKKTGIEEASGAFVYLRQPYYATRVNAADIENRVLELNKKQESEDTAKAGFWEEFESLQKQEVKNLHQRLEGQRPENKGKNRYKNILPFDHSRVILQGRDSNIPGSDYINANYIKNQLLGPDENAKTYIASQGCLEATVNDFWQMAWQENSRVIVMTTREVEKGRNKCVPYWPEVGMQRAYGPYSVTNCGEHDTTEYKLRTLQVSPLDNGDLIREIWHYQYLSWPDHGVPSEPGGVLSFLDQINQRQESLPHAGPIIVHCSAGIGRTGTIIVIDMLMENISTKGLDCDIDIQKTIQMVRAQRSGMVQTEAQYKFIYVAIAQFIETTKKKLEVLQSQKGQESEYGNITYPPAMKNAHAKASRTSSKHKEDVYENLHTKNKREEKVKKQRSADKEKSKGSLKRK

pIC50 [1]: 3.30
pKi [1]: 4.94
SMILES: O=C(O)C(=O)Nc1sc2c(c1C(=O)O)CCNC2

pIC50 [1]: < 3.00
SMILES: COc1cc(Cc2cc(OC)c(O)c(C(=O)O)c2)cc(C(=O)O)c1O

pIC50 [1]: 4.11
SMILES: O=C(O)c1cc(Cc2cc(Br)c(O)c(C(=O)O)c2)cc(Br)c1O

pIC50 [1]: 3.62
SMILES: O=C(O)c1cc(Cc2cc(Cl)c(O)c(C(=O)O)c2)cc(Cl)c1O

pIC50 [1]: < 3.00
SMILES: Cc1cc(Cc2cc(C)c(O)c(C(=O)O)c2)cc(C(=O)O)c1O

The remaining lines, values behind:

SMILES: O=C(O)c1cc(Cc2cc(C(=O)O)c(O)c(-c3ccco3)c2)cc(-c2ccco2)c1O
pIC50 [1]: 4.41

SMILES: O=C(O)c1cc(Cc2cc(Cc3ccccc3)c(O)c(C(=O)O)c2)cc(Cc2ccccc2)c1O
pIC50 [1]: 4.82
pKi [1]: 5.20
pIC50 [2]: < 2.70
pIC50 [3]: 4.49
pKi [3]: 4.85
pIC50 [4]: 3.84
pKi [4]: 4.60
Selectivity ratio (Homo sapiens): > 10
pIC50 [5]: 3.99

SMILES: O=C(O)c1cc(Cc2cc(C(=O)O)c(O)c(-c3ccccc3)c2)cc(-c2ccccc2)c1O
pIC50 [1]: 4.70
pKi [1]: 5.03
pIC50 [2]: < 2.70
Activity (Mus musculus [6]): 29.2 g
Activity (Mus musculus [7]): 1.03 g
pIC50 [3]: 4.29
pKi [3]: 4.77
pIC50 [4]: 3.54
pKi [4]: 4.19
Activity (Mus musculus [8]): 0.26 g
Selectivity ratio (Homo sapiens): > 10
pIC50 [5]: 3.63
Activity (Mus musculus [9]): 0.86 g
